Results from PubChem BioAssay AID1259407 (Chemical Carcinogenesis Research Information System (CCRIS), 2018).
Calls of active or inactive are those of the source. No rule for the calls is given here.

Tested on: CCRIS mutagenicity, Ames/micronucleus/aberration tests
Assay: CCRIS mutagenicity studies
[1] = Test System: AMES SALMONELLA TYPHIMURIUM, Strain/Indicator: TA98, Metabolic Activation: NONE, Method: PREINCUBATION
[2] = Test System: AMES SALMONELLA TYPHIMURIUM, Strain/Indicator: TA98, Metabolic Activation: RAT, LIVER, S-9, PHENOBARBITAL AND 5,6-BENZOFLAVONE, Method: PREINCUBATION
[3] = Test System: AMES SALMONELLA TYPHIMURIUM, Strain/Indicator: TA100, Metabolic Activation: NONE, Method: PREINCUBATION
[4] = Test System: AMES SALMONELLA TYPHIMURIUM, Strain/Indicator: TA100, Metabolic Activation: RAT, LIVER, S-9, PHENOBARBITAL AND 5,6-BENZOFLAVONE, Method: PREINCUBATION
[5] = Test System: AMES SALMONELLA TYPHIMURIUM, Strain/Indicator: TA1535, Metabolic Activation: NONE, Method: PREINCUBATION
[6] = Test System: AMES SALMONELLA TYPHIMURIUM, Strain/Indicator: TA1535, Metabolic Activation: RAT, LIVER, S-9, PHENOBARBITAL AND 5,6-BENZOFLAVONE, Method: PREINCUBATION
[7] = Test System: AMES SALMONELLA TYPHIMURIUM, Strain/Indicator: TA1537, Metabolic Activation: NONE, Method: PREINCUBATION
[8] = Test System: AMES SALMONELLA TYPHIMURIUM, Strain/Indicator: TA1537, Metabolic Activation: RAT, LIVER, S-9, PHENOBARBITAL AND 5,6-BENZOFLAVONE, Method: PREINCUBATION
[9] = Test System: AMES SALMONELLA TYPHIMURIUM, Strain/Indicator: TA98, Metabolic Activation: HAMSTER, LIVER, S-9, AROCLOR 1254 (10%), Method: PREINCUBATION
[10] = Test System: AMES SALMONELLA TYPHIMURIUM, Strain/Indicator: TA98, Metabolic Activation: RAT, LIVER, S-9, AROCLOR 1254 (10%), Method: PREINCUBATION
[11] = Test System: AMES SALMONELLA TYPHIMURIUM, Strain/Indicator: TA100, Metabolic Activation: HAMSTER, LIVER, S-9, AROCLOR 1254 (10%), Method: PREINCUBATION
[12] = Test System: AMES SALMONELLA TYPHIMURIUM, Strain/Indicator: TA100, Metabolic Activation: RAT, LIVER, S-9, AROCLOR 1254 (10%), Method: PREINCUBATION
[13] = Test System: AMES SALMONELLA TYPHIMURIUM, Strain/Indicator: TA1535, Metabolic Activation: HAMSTER, LIVER, S-9, AROCLOR 1254 (10%), Method: PREINCUBATION
[14] = Test System: AMES SALMONELLA TYPHIMURIUM, Strain/Indicator: TA1535, Metabolic Activation: RAT, LIVER, S-9, AROCLOR 1254 (10%), Method: PREINCUBATION
[15] = Test System: AMES SALMONELLA TYPHIMURIUM, Strain/Indicator: TA1537, Metabolic Activation: HAMSTER, LIVER, S-9, AROCLOR 1254 (10%), Method: PREINCUBATION
[16] = Test System: AMES SALMONELLA TYPHIMURIUM, Strain/Indicator: TA1537, Metabolic Activation: RAT, LIVER, S-9, AROCLOR 1254 (10%), Method: PREINCUBATION

**Q.** COC(=O)C1=C(C)NC(C)=C(C(=O)OCCc2ccc(N3CCN(C(c4ccccc4)c4ccccc4)CC3)cc2)C1c1cccc([N+](=O)[O-])c1 (stereo unspecified) was tested. Which mutagenic call [1] did it give?
**A.** inactive; negative

**Q.** What about the mutagenic call [2] of the same compound?
**A.** inactive; negative

**Q.** What about the mutagenic call [3] of the same compound?
**A.** inactive; negative

**Q.** And the mutagenic call [4]?
**A.** inactive; negative

**Q.** What about the mutagenic call [5] of the same compound?
**A.** inactive; negative

**Q.** And the mutagenic call [6]?
**A.** inactive; negative

**Q.** What about the mutagenic call [7] of the same compound?
**A.** inactive; negative

**Q.** And the mutagenic call [8]?
**A.** inactive; negative

**Q.** What about the mutagenic call (Test System: E. COLI, Strain/Indicator: WP2 UVRA, Metabolic Activation: NONE, Method: PREINCUBATION) of the same compound?
**A.** inactive; negative

**Q.** And the mutagenic call (Test System: E. COLI, Strain/Indicator: WP2 UVRA, Metabolic Activation: RAT, LIVER, S-9, PHENOBARBITAL AND 5,6-BENZOFLAVONE, Method: PREINCUBATION)?
**A.** inactive; negative

**Q.** With O=C1C=C(Nc2ccccc2)C(=O)c2ccccc21 as the compound, how does the mutagenic call (Test System: AMES SALMONELLA TYPHIMURIUM, Strain/Indicator: TA97, Metabolic Activation: NONE, Method: PREINCUBATION) read?
**A.** inactive; negative

**Q.** And the mutagenic call (Test System: AMES SALMONELLA TYPHIMURIUM, Strain/Indicator: TA97, Metabolic Activation: RAT, LIVER, S-9, PHENOBARBITAL AND 5,6-BENZOFLAVONE, Method: PREINCUBATION)?
**A.** active; positive

**Q.** What about the mutagenic call [1] of the same compound?
**A.** inactive; negative

**Q.** What about the mutagenic call [2] of the same compound?
**A.** active; positive

**Q.** And the mutagenic call [3]?
**A.** inactive; negative

**Q.** What about the mutagenic call [4] of the same compound?
**A.** inactive; negative

**Q.** What about the mutagenic call (Test System: AMES SALMONELLA TYPHIMURIUM, Strain/Indicator: TA102, Metabolic Activation: NONE, Method: PREINCUBATION) of the same compound?
**A.** inactive; negative

**Q.** What about the mutagenic call (Test System: AMES SALMONELLA TYPHIMURIUM, Strain/Indicator: TA102, Metabolic Activation: RAT, LIVER, S-9, PHENOBARBITAL AND 5,6-BENZOFLAVONE, Method: PREINCUBATION) of the same compound?
**A.** inactive; negative

**Q.** And the mutagenic call (Test System: AMES SALMONELLA TYPHIMURIUM, Strain/Indicator: TA104, Metabolic Activation: NONE, Method: PREINCUBATION)?
**A.** inactive; negative

**Q.** What about the mutagenic call (Test System: AMES SALMONELLA TYPHIMURIUM, Strain/Indicator: TA104, Metabolic Activation: RAT, LIVER, S-9, PHENOBARBITAL AND 5,6-BENZOFLAVONE, Method: PREINCUBATION) of the same compound?
**A.** active; positive

**Q.** And the mutagenic call [5]?
**A.** inactive; negative

**Q.** And the mutagenic call [6]?
**A.** inactive; negative

**Q.** What about the mutagenic call [7] of the same compound?
**A.** inactive; negative

**Q.** And the mutagenic call [8]?
**A.** active; positive

**Q.** And the mutagenic call (Test System: AMES SALMONELLA TYPHIMURIUM, Strain/Indicator: TA1538, Metabolic Activation: NONE, Method: PREINCUBATION)?
**A.** inactive; negative

**Q.** And the mutagenic call (Test System: AMES SALMONELLA TYPHIMURIUM, Strain/Indicator: TA1538, Metabolic Activation: RAT, LIVER, S-9, PHENOBARBITAL AND 5,6-BENZOFLAVONE, Method: PREINCUBATION)?
**A.** active; positive

**Q.** What about the mutagenic call (Test System: AMES SALMONELLA TYPHIMURIUM, Strain/Indicator: TA2637, Metabolic Activation: NONE, Method: PREINCUBATION) of the same compound?
**A.** active; positive

**Q.** What about the mutagenic call (Test System: AMES SALMONELLA TYPHIMURIUM, Strain/Indicator: TA2637, Metabolic Activation: RAT, LIVER, S-9, PHENOBARBITAL AND 5,6-BENZOFLAVONE, Method: PREINCUBATION) of the same compound?
**A.** active; positive

**Q.** What does the source list for OCC(Br)CBr (stereo unspecified)?
**A.** mutagenic call [9]: active; positive; mutagenic call [1]: active; positive; mutagenic call [10]: active; positive; mutagenic call [11]: active; positive; mutagenic call [3]: active; positive; mutagenic call [12]: active; positive; mutagenic call (Test System: AMES SALMONELLA TYPHIMURIUM, Strain/Indicator: TA100, Metabolic Activation: RAT, LIVER, S-9, AROCLOR 1254, Method: STANDARD PLATE): active; positive; mutagenic call (Test System: AMES SALMONELLA TYPHIMURIUM, Strain/Indicator: TA102, Metabolic Activation: S-9, Method: STANDARD PLATE): active; positive; mutagenic call [13]: active; positive; mutagenic call [5]: active; positive; mutagenic call [14]: active; positive; mutagenic call (Test System: AMES SALMONELLA TYPHIMURIUM, Strain/Indicator: TA1535, Metabolic Activation: RAT, LIVER, S-9, AROCLOR 1254, Method: STANDARD PLATE): active; positive; mutagenic call [15]: inactive; negative; mutagenic call [7]: inactive; negative; mutagenic call [16]: inactive; negative; mutagenic call (Test System: AMES SALMONELLA TYPHIMURIUM, Strain/Indicator: TA2638, Metabolic Activation: S-9, Method: STANDARD PLATE): active; positive; mutagenic call (Test System: E. COLI, Strain/Indicator: WP2 (PKM101), Metabolic Activation: S-9, Method: STANDARD PLATE): active; positive; mutagenic call (Test System: E. COLI, Strain/Indicator: WP2 UVRA (PKM101), Metabolic Activation: S-9, Method: STANDARD PLATE): active; positive; mutagenic call (Test System: MOUSE LYMPHOMA, Strain/Indicator: L5178Y (TK+/TK-), Metabolic Activation: NONE, Method: SUSPENSION/PLATE): active; positive

**Q.** With Clc1ccccc1-c1nc2ccccc2o1 as the compound, how does the mutagenic call (Test System: AMES SALMONELLA TYPHIMURIUM, Strain/Indicator: TA98, Metabolic Activation: NONE, Method: STANDARD PLATE) read?
**A.** inactive; negative

**Q.** And the mutagenic call (Test System: AMES SALMONELLA TYPHIMURIUM, Strain/Indicator: TA98, Metabolic Activation: S-9, Method: STANDARD PLATE)?
**A.** inactive; negative

**Q.** What does the source list for C[C@]12CC[C@@H]3c4ccc(O)cc4CC[C@H]3[C@@H]1CCC2=O?
**A.** mutagenic call (End Point: IN VITRO CHROMOSOMAL ABERRATIONS, Test System: CHO CELLS, Metabolic Activation: NONE): active; positive; mutagenic call (End Point: IN VITRO MICRONUCLEUS, Test System: MCF-7 (HUMAN MAMMARY CARCINOMA), Metabolic Activation: NONE): active; positive; mutagenic call (Test System: UDS RAT HEPATOCYTES, Strain/Indicator: THY INCORP (18-20 HR), Metabolic Activation: NONE, Method: LIQUID SCINTILLATION COUNTING): inactive; negative

**Q.** How did the mutagenic call (Test System: Ames Salmonella typhimurium, Strain/Indicator: TA98, Metabolic Activation: None, Method: Plate incorporation) turn out when c1ccc2c(c1)ccc1ccc3ccsc3c12 was run?
**A.** active; positive

**Q.** And the mutagenic call (Test System: Ames Salmonella typhimurium, Strain/Indicator: TA100, Metabolic Activation: None, Method: Plate incorporation)?
**A.** active; positive

**Q.** And the mutagenic call (Test System: Ames Salmonella typhimurium, Strain/Indicator: TA1040, Metabolic Activation: None, Method: Plate incorporation)?
**A.** inactive; negative

**Q.** Which mutagenic call [9] does the source give for CCOC(=O)c1ccccc1C(=O)OCC here?
**A.** inactive; negative

**Q.** What about the mutagenic call [1] of the same compound?
**A.** inactive; negative

**Q.** And the mutagenic call [10]?
**A.** inactive; negative

**Q.** What about the mutagenic call [11] of the same compound?
**A.** inactive; negative

**Q.** And the mutagenic call [3]?
**A.** inactive; negative

**Q.** And the mutagenic call (Test System: AMES SALMONELLA TYPHIMURIUM, Strain/Indicator: TA100, Metabolic Activation: NONE, Method: STANDARD PLATE)?
**A.** active; positive

**Q.** What about the mutagenic call [12] of the same compound?
**A.** inactive; negative

**Q.** What about the mutagenic call (Test System: AMES SALMONELLA TYPHIMURIUM, Strain/Indicator: TA100, Metabolic Activation: S-9, Method: STANDARD PLATE) of the same compound?
**A.** inactive; negative

**Q.** And the mutagenic call [13]?
**A.** inactive; negative

**Q.** And the mutagenic call [5]?
**A.** inactive; negative

**Q.** And the mutagenic call (Test System: AMES SALMONELLA TYPHIMURIUM, Strain/Indicator: TA1535, Metabolic Activation: NONE, Method: STANDARD PLATE)?
**A.** active; positive

**Q.** What about the mutagenic call [14] of the same compound?
**A.** inactive; negative

**Q.** What about the mutagenic call (Test System: AMES SALMONELLA TYPHIMURIUM, Strain/Indicator: TA1535, Metabolic Activation: S-9, Method: STANDARD PLATE) of the same compound?
**A.** inactive; negative

**Q.** What about the mutagenic call [15] of the same compound?
**A.** inactive; negative

**Q.** What about the mutagenic call [7] of the same compound?
**A.** inactive; negative

**Q.** And the mutagenic call [16]?
**A.** inactive; negative
